Data reported in patent US10881720B2, “Nanoparticles for immune stimulation” (THE BOARD OF REGENTS OF THE UNIVERSITY OF TEXAS SYSTEM, priority 2014, dated 2021).

Tests used:
[1] = test system: iNKT cells; experiment: In vitro CFSE-dilution proliferation of iNKT cells in splenocyte culture; assay type: cell-based, WT C57BL/6 mice; settings: for percent of iNKT cells proliferated (CFSE dilution): three days of culture
Experimental: (§1) Even activation of both iNKT and B cells by the weak agonist, soluble βGlcCer was enhanced by encapsulation of this glycolipid in nanoparticles (βGC-NanoP). Nanoparticles lacking glycolipids were not stimulatory for either iNKT or B cells in this assay (data not shown). Nanoparticles were assessed by Mass Spectrometry and Scanning Electron Microscopy for lipid content and particle size. In the study, spleen cells were isolated, then labeled with carboxyfluorescein diacetate succinimidyl ester (CFSE) and cultured for 3 days with soluble αGalCer, soluble βGlcCer, αGC-NanoPs, or βGC-NanoPs at concentrations of glycolipid noted. […] FIG. 2B is a graph showing a summary of the data in FIG. 2A. […] FIGS. 2C and 2D show the percentage of B220+ cells that dilute CFSE after 3 days of in vitro culture with soluble αGalCer and αGC-NanoP (FIG. 2C), or soluble βGlcCer and βGC-NanoP (FIG. 2D). Results shown are representative of 2 experiments, duplicate wells. *=p≤0.05 as compared to soluble glycolipid.
Total spleen cells from WT C57BL/6 mice were removed, a single cell suspension was created, and red blood cells were lysed. Splenocytes were labeled with carboxyfluorescein succinimidyl ester (CFSE) using standard procedures and then cultured at 2×10^6 cells/well in a 96 well flat bottom tissue culture plate. At the initiation of this culture, cells were coincubated with 10 pg/ml or 10 ng/ml of αGalCer, βGlcCer, αGC-NanoP, βGC-NanoP, or left in media only. After three days of culture, cells were removed from the wells, labeled with fluorescently tagged lineage specific markers (anti-B220 for B cells and anti-TcRβ plus CD1d-tetramer for iNKT cells) and assessed for cell type specific CFSE dilution by FACS analysis. […] In comparison, 39% of iNKT cells proliferated in response to αGC-NanoP at the 10 ng/ml dose and 35% responded vigorously to the 10 pg/ml dose.

[2] = test system: splenic B cells; experiment: In vitro CFSE-dilution proliferation of B220+ B cells in splenocyte culture; assay type: cell-based, WT C57BL/6 mice; settings: over the doses tested (10 pg/ml, 10 ng/ml), three days
Experimental: as §1
Total spleen cells from WT C57BL/6 mice were removed, a single cell suspension was created, and red blood cells were lysed. […] After three days of culture, cells were removed from the wells, labeled with fluorescently tagged lineage specific markers (anti-B220 for B cells and anti-TcRβ plus CD1d-tetramer for iNKT cells) and assessed for cell type specific CFSE dilution by FACS analysis. […]

| Compound | percent of iNKT cells proliferated (CFSE dilution) ([1]; 10 pg/ml glycolipid) | percent of iNKT cells proliferated (CFSE dilution) ([1]; 10 ng/ml glycolipid) | B cell proliferation (CFSE dilution) [2] | stimulation of iNKT cells ([1]; either dose tested (10 pg/ml, 10 ng/ml), three days) |
| --- | --- | --- | --- | --- |
| CCCCCCCCCCCCCCCCCCCCCCCCCC(=O)N[C@@H](CO[C@H]1O[C@H](CO)[C@H](O)[C@H](O)[C@H]1O)[C@H](O)[C@H](O)CCCCCCCCCCCCCC [αGalCer, αGalactosylceramide] | not responsive | 44% | only to the higher doses |  |
| βGlucosylceramide [βGlcCer] |  |  | not to the doses tested | neither βGlcCer alone nor βGC-NanoP were stimulatory |
